# In US20220062245A1, “AGENT FOR IMPROVING INFERTILITY, RECURRENT MISCARRIAGE, AND STATE OF PREGNANCY” (priority 2018, published 2022):
# Entries after “also recorded” stand apart in the source; their conditions may differ.
# Columns and labels:
# [1] = system: RPL (recurrent pregnancy loss) patient; details: cited from earlier work; for Outcome of earlier treatment: low-dose aspirin, heparin, prednisolone 5 mg/day, large-quantity γ-globulin 1 g/kg for 3 days, given in this order
# [2] = Concentration of tacrolimus in the cord blood by chemiluminescence immunoassay (ECLIA); format: in vivo, human; details: at delivery, mother on 5 mg/day oral
# [3] = system: patients with five consecutive incidences of RIF (repeated implantation failure); details: treated from two days before embryo transplantation to day of pregnancy test; daily dose by Th1/Th2 cell ratio; 16/25 versus 0% (0/17) untreated; cited from earlier work
# [4] = system: patient suffering from a blood type incompatible pregnancy with negative maternal Rho (D) and positive fetal Rho (D); assay: Anti-D antibody titer by indirect Coombs test, Example 1 patient; format: in vivo, human; details: for Anti-D antibody titer: maternal blood, tacrolimus 4 mg/day oral
# Procedure: Measurement of Anti-D Antibody Titer
# The measurement is carried out by the indirect Coombs test. The indirect Coombs test is a test in which an anti-immunoglobulin antibody is added to a mixture of the blood serum of a patient and the blood of a healthy person to examine whether a hemagglutination reaction occurs (any irregular antibody present in the blood serum is detected) (for the Coombs test, see Nissan Women's Journal Vol. 59, No. 10, N-617-N-623).
# (§1) The patient is a person having blood type A. The patient suffering from a blood type incompatible pregnancy with negative maternal Rho (D) and positive fetal Rho (D) was subjected to the following treatments. That is, at the time of the first pregnancy, anti-D immunoglobulin was not administered during pregnancy, sensitization was effected before delivery, and the anti-D antibody titer at the time of delivery was 8-fold. In week 39, they gave birth by emergency cesarean section due to placental abruption of the upper placenta.
# (§2) The anti-D antibody titer obtained immediately after the establishment of pregnancy was 4-fold; however, the titer reached 16-fold in week 24 and reached 32-fold in week 26 (FIG. 6, upper part). After that, migration of fetal antigens to the mother's body via the placenta was assumed to further increase, and preparation of plasmapheresis and fetal blood transfusion was initiated in preparation for a rapid increase in the antibody titer.
# (§3) Furthermore, the blood flow velocity in the middle cerebral artery and the estimated body weight of the fetus were measured by fetal ultrasonography.
# [5] = system: patient having a medical history of pregnancy-induced hypertensive nephropathy and HELLP syndrome; assay: Prevention or delay of onset of pregnancy-induced hypertension syndrome, HELLP syndrome and eclampsia (Example 4, Table 1); format: in vivo, human
# Text: A patient is a person having a medical history of pregnancy-induced hypertensive nephropathy and HELLP syndrome. […] After the delivery, pulmonary edema, disseminated intravascular coagulation (DIC), and intraperitoneal bleeding, all of which are severe complications, were recognized, and the patient received treatments such as management using an artificial respirator, supplement of albumin, and blood component transfusion.
# This time, in the hematologic examination findings before pregnancy, there were no abnormalities in all of the liver function, kidney function, and coagulation function, and abnormal findings were not observed in the examination items involved in infertility such as antiphospholipid antibody syndrome (anti-CL-IgG antibody, anti-CL-IgM antibody, anti-PS/PT antibody, anti-CL-β2GP1 antibody, LAC, anti-PE-IgG antibody, and anti-PE-IgM antibody), autoimmune diseases (anti-DNA antibody and antinuclear antibody), and coagulation dysfunction.
# The circumstances of the first pregnancy and the pregnancy of this time are described in Table 1.
# The ratio of Th1 (CD4g^+IFN-g^+)/Th2(CD4^+IL-4^+) in CD4-positive cells is 15.2/2.1 (normal value: less than 10.3), and clear immunological abnormalities were also not observed before pregnancy [Reference Literature 12b]; however, it was assumed that after implantation of a fertilized ovum, immunity of the mother's body would be activated, and immune abnormality between the mother's body and the fetus would suppress placental construction and functions thereof, causing fetal growth restriction and hypertension during pregnancy. Considering this, the patient was treated with 1 mg/day of tacrolimus from week 4 of pregnancy, for the purpose of controlling the immunity between the mother's body and the fetus after confirmation of pregnancy.
# In this case, monotherapy was carried out with 1 mg/day of tacrolimus from the early stage of pregnancy, and combined treatment of low dose aspirin (LDA) intended for HDP prevention by bloodstream improvement was not carried out [Reference Literature 13b]. Regarding the pregnancy progress, there was no problem in the second trimester of pregnancy, where the patient developed HELLP syndrome in the previous pregnancy, and pregnancy progressed smoothly to the third trimester of pregnancy; however, the patient rapidly acquired HELLP syndrome similarly to the previous pregnancy, after week 33 of pregnancy.
# NK cells = assay: NK cell activity during pregnancy (Example 4); format: in vivo, human; details: Example 4 patient during pregnancy, tacrolimus 1 mg/day; normal value 18% to 40%; FIG. 8
# [6] = system: patient suffering from a blood type incompatible pregnancy with negative maternal Rho (D) and positive fetal Rho (D); assay: Pregnancy course and fetal/neonatal outcome in blood type incompatible pregnancy treated with tacrolimus (Example 1); format: in vivo, human
# Text: as §1
# Two years later, […] hoped to have a second child but suffered from infecundity and was treated for sterility by in vitro fertilization; however, since the treatment was unsuccessful after five embryo transplantations, a close examination of the immune system was conducted. At that time, a marked increase (24.9) in the Th1/Th2 (Th1 32.4, Th2 1.3) ratio was recognized, the illness was judged as infecundity considered to be caused by an abnormality in the immune system, and a tacrolimus treatment was selected.
# as §2, §3
# [7] = system: Th1 and Th2 cells among CD4-positive cells; assay: Analysis of Th1 cells and Th2 cells in patient blood by flow cytometry; format: in vivo, human
# Procedure: Analysis of Th1 Cells and Th2 Cells
# For the purpose of evaluating the baseline value of the Th1/Th2 cell ratio, a total of 10 ml of venous blood was collected. Th1 cells and Th2 cells were determined by detecting the production of intracellular interferon (IFN)-γ and IL-4.
# Specific staining of lymphocytes was performed by incubating whole blood together with anti-CD4-PC5 or anti-CD8-PC5-conjugated monoclonal antibody (mAbs) (Beckman Coulter, Inc., Fullerton, Calif., USA). Red blood cells (RBCs) were removed by hemolysis (using FACS Lysing solution; Becton, Dickinson and Company, BD 134 Biosciences, Franklin Lake, N.J., USA), and lymphocytes were analyzed using flow cytometry (FACSCalibur; Becton, Dickinson and Company). Activated whole blood samples were surface-stained using anti-CD4-PC5-conjugate mAbs, and then RBC hemolysis and specific intracellular staining using Fast Immune (trademark) IFN-γ-FITC/IL-4-PE (Becton, Dickinson and Company) were carried out in sequence according to the manufacturer's instructions for use. Th1 cells were defined as CD4^+ lymphocytes accompanied by intracellular IFN-γ but not by intracellular IL-4. Th2 cells were detected as CD4^+ lymphocytes accompanied by intracellular IL-4 but not by intracellular IFN-γ. The ratio of intracellular IFN-γ-positive Th cells with respect to intracellular IL-4-positive Th cells was expressed as the Th1/Th2 cell ratio.
# [8] = pregnancy of this time, tacrolimus 1 mg/day, after parturition
# [9] = pregnancy of this time, tacrolimus 1 mg/day, before parturition
# [10] = tacrolimus 1 mg/day, after parturition
# [11] = tacrolimus 1 mg/day, before parturition
compound,measurement,setting,value
heparin,Outcome of earlier treatment,[1],not successful
"C=CCC1/C=C(\C)CC(C)CC(OC)C2OC(O)(C(=O)C(=O)N3CCCCC3C(=O)OC(/C(C)=C/C3CCC(O)C(OC)C3)C(C)C(O)CC1=O)C(C)CC2OC (stereo not drawn) [tacrolimus, 17-Allyl-1,14-dihydroxy-12-[2-(4-hydroxy-3-methoxycyclohexyl)-1-methylvinyl]-23,25-dimethoxy-13,19,21,27-tetramethyl-11,28-dioxa-4-azatricyclo[22.3.1.04,9]octacos-18-ene-2,3,10,16-tetraone]",Concentration of tacrolimus in the cord blood,[2],lower than or equal to the detection limit value
same,Clinical pregnancy rate,[3],64.0%
same,Anti-D antibody titer in the cord blood,[4]; cord blood at delivery,double
same,Anti-D antibody titer,[4]; immediately after the establishment of pregnancy,4 fold
same,Anti-D antibody titer,[4]; week 24 of pregnancy,16 fold
same,Anti-D antibody titer,[4]; week 26 of pregnancy,32 fold
same,Information on fetus: Fetal growth,"[5]; pregnancy of this time, tacrolimus 1 mg/day from week 4",−1.9 SD
same,Information on fetus: Body weight,"[5]; pregnancy of this time, tacrolimus 1 mg/day from week 4, at birth",1490 g
same,Complications after parturition,[5]; [8],None
same,Symptoms: Edema,[5]; [8],Negligible
same,Symptoms: Hypertension,[5]; [8],Temporary
same,Proteinuria initiated (weeks of pregnancy),[5]; [9],33 weeks of pregnancy
same,Symptoms: Edema,[5]; [9],Negligible
same,Delay of onset of HELLP syndrome compared to the previous pregnancy,"[5]; single administration of tacrolimus 1 mg/day, previous pregnancy untreated",about 13 weeks
same,"Proteinuria, edema, and hypertension during pregnancy progress",[5]; tacrolimus 1 mg/day monotherapy from week 4 of pregnancy,not observed until week 32 of pregnancy
same,Blood examination: ALT,[5]; [10],833 U/L
same,Blood examination: AST,[5]; [10],898 U/L
same,Blood examination: Cr,[5]; [10],0.59 mg/dL
same,Blood examination: Hb,[5]; [10],10.5 g/dL
same,Blood examination: LDH,[5]; [10],1995 U/L
same,Blood examination: Plt,[5]; [10],2.2 10^4/µL
same,Blood examination: WBC,[5]; [10],8220 µL⁻¹
same,Blood examination: ALT,[5]; [11],71 U/L
same,Blood examination: AST,[5]; [11],65 U/L
same,Blood examination: Cr,[5]; [11],1 mg/dL
same,Blood examination: Hb,[5]; [11],11 g/dL
same,Blood examination: LDH,[5]; [11],316 U/L
same,Blood examination: Plt,[5]; [11],10 10^4/µL
same,Blood examination: WBC,[5]; [11],8280 µL⁻¹
same,Pregnancy progress,"[1]; tacrolimus 2 mg/day continuously during pregnancy, no other treatments",favorable pregnancy progress
same,NK cell activity,NK cells,decreased in the second trimester of pregnancy and then conspicuously increased in the examination in week 32 of pregnancy; also recorded: decreased in the second trimester and then conspicuously increased from week 32 of pregnancy
same,Body weight of child at birth,"[6]; Example 1, tacrolimus 4 then 5 mg/day",2834 g
same,Body weight of the fetus in the weeks of pregnancy,"[6]; FIG. 7, estimated by fetal ultrasonography",smoothly increased
same,Malformations of the child,[6]; child exposed in utero to tacrolimus 4 to 5 mg/day,no external malformations or visceral malformations
same,Fetal anemia (blood flow velocity in the middle cerebral artery),"[6]; fetal ultrasonography during pregnancy, tacrolimus 4 then 5 mg/day",corresponded to the number of weeks; also recorded: without observing any fetal anemia; also recorded: fetal anemia was not developed during the entire course of pregnancy
same,Establishment of pregnancy by embryo transplantation,"[6]; person, infecundity after five unsuccessful embryo transplantations, Th1/Th2 24.9, tacrolimus 4 mg/day oral",Pregnancy was established by a single embryo transplantation
same,Pregnancy progress in RhD incompatible pregnancy,"[6]; without using plasma exchange, data not shown",satisfactory pregnancy progress was obtained
same,Th1,"[7]; Example 1 patient, week 28 of pregnancy, on tacrolimus 4 mg/day",tendency of increase again
same,Ratio (proportions) of Th1 and Th2 cells among CD4-positive cells,"[7]; Example 4 patient during pregnancy, tacrolimus 1 mg/day, FIG. 8",continuously decreased
C[C@]12C=CC(=O)C=C1CC[C@@H]1[C@@H]2[C@@H](O)C[C@@]2(C)[C@H]1CC[C@]2(O)C(=O)CO [prednisolone],Outcome of earlier treatment,[1],not successful
CC(=O)Oc1ccccc1C(=O)O [aspirin],Outcome of earlier treatment,[1],not successful
